The target of the assay is T1, Ha24 (rHa24-GST) (Hyalomma asiaticum, UniProt A0A1W5TAU9).
T1 construct: precursor 227 aa with 26-residue signal peptide, mature 201 aa
T1 sequence (A0A1W5TAU9 27-227): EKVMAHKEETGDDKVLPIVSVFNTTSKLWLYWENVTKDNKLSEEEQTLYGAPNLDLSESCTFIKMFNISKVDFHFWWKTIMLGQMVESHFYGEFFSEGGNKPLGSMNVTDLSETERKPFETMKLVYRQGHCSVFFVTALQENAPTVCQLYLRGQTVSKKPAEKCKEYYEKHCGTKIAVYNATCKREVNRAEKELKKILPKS
The assay is described as follows: ELISA with immobilised rHa24-GST and histamine-HRP conjugate, OD […] nm. It counts as binding. Conditions: labelled compound (histamine-HRP); protein coated at 1.25-10 ug/ml, pH 9.6; 37 °C, 2 h; GST as control. Background: ELISA stands for enzyme-linked immunosorbent assay.

We go through one compound from PMC5027092, “Specific histamine binding activity of a new lipocalin from Hyalomma asiaticum (Ixodidae) and therapeutic effects on allergic asthma in mice” (Parasites & Vectors, 2016).

The structures appear in SMILES notation.

Consider `NCCc1c[nH]cn1` [histamine], for which the “ELISA with immobilised rHa24-GST and histamine-HRP conjugate, OD 650 nm” value is reported as “The results showed that rHa24 has the ability to bind with histamine”.
